The text below walks through data of US7022699B2, “Cyclohexenyl phenyl diazepines vasopressin and oxytocin receptor modulators” (Wyeth, priority 2001, dated 2006).

Data set [1] addresses T1, human vasopressin V1a receptor subtype (Homo sapiens, UniProt P37288).
T1 construct: host or cells: CHO cells, stably transfected (pZeoSV vector for the Thibonnier cells); membranes
The data set is described as follows: Vasopressin binding in CHO cell membranes expressing human vasopressin V1a subtype receptors ([3H]Manning ligand). The following applies: for inhibition at 0.1 µM / V1a % inhibition @ 100 nM: 100 nM, values without parentheses; for IC50: values in parentheses. The text has this: Vasopressin Binding in Chinese Hamster Ovary Cell Membranes Expressing Human Vasopressin V1a Subtype Receptors
Chinese hamster ovary cells (CHO cells) stably transfected with the human vasopressin V1a subtype receptors were either obtained from Biosignal Inc., 1744 rue Williams, Montreal, Quebec, Canada or obtained from M. Thibonnier, Case Western Reserve University School of Medicine, Cleveland, Ohio. A. Passaging and Amplification of Cells: CHO cells transfected with the human vasopressin V1a subtype receptors obtained from M. Thibonnier (pZeoSV vector) are allowed to grow to confluency (approx. >90%) in T-150 flasks under sterile conditions, in a cell culture medium of F-12 Nutrient Mixture (HAM) with L-glutamine (Gibco Cat. #11765-054) containing 15 mM HEPES (Gibco Cat. #15630-080), 1% antibiotic/antimycotic (add 5 mL 100×, Gibco Cat. #15240-062 per 500 mL F-12), 250 μg/mL Zeocin (add 1.25 mL of 100 mg/mL Invitrogen R-250-01 per 500 mL F-12) and 10% Fetal Bovine Serum (Qualified, heat inactivated, Gibco Cat. #16140-063). The medium is removed by aspiration and the cells are washed with 10 mL of Hank's Balanced Salt solution (Gibco Cat. #14175-095). The salt solution is removed by aspiration and the cells are trypsinized with 5 mL of trypsin-EDTA (0.05% trypsin, 0.53 mM EDTA-4Na, Gibco Cat. #25300-070) for 1 min. The trypsin is removed by aspiration and the cells dislodged by tapping. Cell Culture medium (eg, 30 mL for 1:30 split) is immediately added and mixed well to inactivate trypsin. 1 mL of detached cells is added to new culture flasks containing fresh cell culture medium (eg, into 25 mL per T-150 flask), and mixed gently. The cells are incubated at 37° C. in 5% CO2. The medium is changed at 3 to 4 days interval (or as appropriate). The cells grow to confluency (approx. >75%–95%) within 7–8 days. All steps are done under sterile conditions. B. Membrane Preparation: The cells are washed twice gently with Hank's Balanced Salt solution (e.g.,. use 10 mL per T-150 flask). The excess is removed and the cells are bathed for 15–30 min. in an enzyme-free Cell Dissociation Buffer (e.g. use 8 mL Hank's Based, Gibco Cat. #13150-016 per T-150 flask) until the cells are loosened. The contents are transferred to centrifuge tubes (50 mL size) kept in ice bath. All subsequent steps are done at 4° C. The tubes are centrifuged at 300×g for 15 min (1380 rpm on SORVAL, Model RT6000D, using rotor for 50 mL tubes). The supernatant is discarded and the cells suspended in homogeneizing buffer (10 mM Tris-HCl containing 0.25 M sucrose and 1 mM EDTA, pH 7.4) ensuring that the volume of the buffer is about ten times the volume of the cell pellet. The cells are pooled into a centrifuge tube (50 mL) and homogenized with Polytron at setting 6 for 10 sec. The homogenate is transferred into a Potter-Elvjehm homogenizer and homogenized with 3 strokes. The homogenate is centrifuged at 1500×g for 10 min at 4° C. (3100 rpm using SORVAL, model RT6000D, using rotor for 50 mL tubes). The pellet is discarded. The supernatant is centrifuged at 100,000×g for 60 min. at 4° C. (Beckman L8-80M ultracentrifuge; spin at 37,500 rpm with rotor type 70 Ti for 50 mL tubes; 38,000 rpm with type 80Ti for 15 mL tubes; or 35,800 rpm with rotor type 45Ti). The supernantant is discarded and the pellet suspended in 3 to 4 mL of Tris buffer (50 mM TRIS-HCl, pH 7.4). The protein content is estimated by the Bradford or Lowry method. The volume of the membrane suspension is adjusted with the membrane buffer (50 mM Tris-HCl containing 0.1% BSA and 0.1 mM PMSF) to give 3.0 mg/mL (or as appropriate) of protein. The membranes are aliquoted and stored at −70° C. C. […]

T1 sequence (P37288 whole entry): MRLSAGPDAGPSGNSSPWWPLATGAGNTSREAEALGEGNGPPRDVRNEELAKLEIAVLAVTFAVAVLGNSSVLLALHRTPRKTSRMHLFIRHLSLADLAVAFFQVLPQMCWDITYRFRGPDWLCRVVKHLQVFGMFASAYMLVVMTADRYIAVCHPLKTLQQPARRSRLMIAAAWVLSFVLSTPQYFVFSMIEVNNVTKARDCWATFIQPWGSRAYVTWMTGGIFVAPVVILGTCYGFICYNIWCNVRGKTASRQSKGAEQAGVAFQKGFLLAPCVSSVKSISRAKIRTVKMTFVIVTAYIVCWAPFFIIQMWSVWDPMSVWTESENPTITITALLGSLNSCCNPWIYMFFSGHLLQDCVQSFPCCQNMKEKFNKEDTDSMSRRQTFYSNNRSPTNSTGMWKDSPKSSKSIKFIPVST

Broadly, the inhibition is the drop in the measured response relative to a control, in per cent. For the compound `CC1=C(c2ccc(C(=O)N3Cc4cccn4Cc4ccccc43)cc2C)CCCC1O` (racemic) [Example 5, (10,11-Dihydro-5H-pyrrolo[2,1-c][1,4]benzodiazepin-10-yl)-[4-(3-hydroxy-2-methyl-cyclohex-1-en-1-yl)-3-methyl-phenyl]-methanone], in data set [1], the inhibition at 0.1 µM turned out to be 0%.

Regarding `CC1=C(c2ccc(C(=O)N3Cc4cccn4Cc4ccccc43)cc2C)CCC[C@H]1O` (single isomer, unassigned) [Example 41], the inhibition at 0.1 µM in data set [1] came out at 36%.

As for `CC1=C(c2ccc(C(=O)N3Cc4cccn4Cc4ccccc43)cc2C)CCC[C@@H]1O` (single isomer, unassigned) [Example 43], in data set [1], the inhibition at 0.1 µM is 93%.

One may read the IC50 as the midpoint of a concentration-inhibition curve. For orientation: melting point means the temperature of the solid-liquid transition. With `COc1cc(C2=CCCCC2)c(Cl)cc1C(=O)N1Cc2cccn2Cc2ccccc21` [Example 1, 10-(5-Chloro-4-cyclohex-1-en-1-yl-2-methoxybenzoyl)-10,11-dihydro-5H-pyrrolo[2,1-c][1,4]benzodiazepine], the melting point was 92 to 98 °C. Also, the IC50 in data set [1] is 232 nM.

In turn, `Cc1cc(C(=O)N2Cc3cccn3Cc3ccccc32)ccc1C1=CCCCC1` [Example 2, (10,11-Dihydro-5H-pyrrolo[2,1-c][1,4]benzodiazepin-10-yl)-(4-cyclohex-1-en-1-yl-3-methyl-phenyl)-methanone] yielded a melting point of 182 to 183 °C. For the same compound, the inhibition at 0.1 µM in data set [1] is 74%.

`Cc1cc(C(=O)N2Cc3cccn3Cc3ccccc32)ccc1C1=CCCc2ccccc21` [Example 3, (10,11-Dihydro-5H-pyrrolo[2,1-c][1,4]benzodiazepin-10-yl)-[4-(3,4-dihydro-naphthalen-1-yl)-3-methyl-phenyl]-methanone]: the melting point was found to be 108 °C. Besides, the IC50 in data set [1] was 432 nM.

In the case of `CC1=C(c2ccc(C(=O)N3Cc4cccn4Cc4ccccc43)cc2C)CCCC1=O` [Example 4, 3-[2-Methyl-4-(5H-pyrrolo[2,1-c][1,4]benzodiazepin-10(11H)-yl-carbonyl)phenyl]-2-methyl-cyclohex-2-en-1-one], the inhibition at 0.1 µM in data set [1] stood at 7%.

With `CC1=C(c2ccc(C(=O)N3Cc4cccn4Cc4ccccc43)cc2C)CCC[C@H]1O` [Example 6, (10,11-Dihydro-5H-pyrrolo[2,1-c][1,4]benzodiazepin-10-yl)-[4-((3R)-3-hydroxy-2-methyl-cyclohex-1-en-1-yl)-3-methyl-phenyl]-methanone], the inhibition at 0.1 µM in data set [1] came to 45%.

`CC1=C(c2ccc(C(=O)N3Cc4cccn4Cc4ccccc43)cc2)CCCC1` [Example 7, (10,11-Dihydro-5H-pyrrolo[2,1-c][1,4]benzodiazepin-10-yl)-[4-(2-methyl-cyclohex-1-en-1-yl)-phenyl]-methanone]: the melting point was in the range of 119 to 120 °C. For the same compound, the 50% inhibitory concentration (IC50) in data set [1] was found to be 45.7 nM.

`COc1cc(C2=CCCc3ccccc32)c(Cl)cc1C(=O)N1Cc2cccn2Cc2ccccc21` [Example 8, 10-[5-Chloro-4-(3,4-dihydro-naphthalen-1-yl)-2-methoxybenzoyl]-10,11-dihydro-5H-pyrrolo[2,1-c][1,4]benzodiazepine]: the melting point was in the range of 209 to 210 °C. Moreover, the inhibition at 0.1 µM in data set [1] is -9%.

For `COc1cc(C2=C(C)C(=O)CCC2)c(Cl)cc1C(=O)N1Cc2cccn2Cc2ccccc21` [Example 9, 3-[2-Chloro-5-methoxy-4-(5H-pyrrolo[2,1-c][1,4]benzodiazepin-10(11H)-yl-carbonyl)phenyl]-2-methyl-cyclohex-2-en-1-one], the inhibition at 0.1 µM in data set [1] was 17%.

In the case of `O=C(c1ccc(C2=CCCCC2)cc1Cl)N1Cc2cccn2Cc2ccccc21` [Example 10, (10,11-dihydro-5H-pyrrolo[2,1-c][1,4]benzodiazepin-10-yl)-[2-chloro-4-(cyclohex-1-en1-yl)-phenyl]-methanone], the inhibition at 0.1 µM in data set [1] was found to be 94%.

`O=C(c1ccc(C2=CCCc3ccccc32)cc1Cl)N1Cc2cccn2Cc2ccccc21` [Example 11, (10,11-Dihydro-5H-pyrrolo[2,1-c][1,4]benzodiazepin-10-yl)-[2-chloro-4-(3,4-dihydro-naphthalen-1-yl)-phenyl]-methanone]: the melting point was 174 to 176 °C. In data set [1], the inhibition at 0.1 µM amounted to 6%.

On to `CC1(C)CCCC=C1c1ccc(C(=O)N2Cc3cccn3Cc3ccccc32)c(Cl)c1` [Example 12, (10,11-Dihydro-5H-pyrrolo[2,1-c][1,4]benzodiazepin-10-yl)-[2-chloro-4-(6,6-dimethyl-cyclohex-1-en-1-yl)-phenyl]-methanone], for which, in data set [1], the inhibition at 0.1 µM was 54%.

In the case of `CC1=C(c2ccc(C(=O)N3Cc4cccn4Cc4ccccc43)c(Cl)c2)CCCC1=O` [Example 13, (10,11-Dihydro-5H-pyrrolo[2,1-c][1,4]benzodiazepin-10-yl)-[2-chloro-4-(2-methyl-3-oxo-cyclohex-1-en-1-yl)-phenyl]-methanone], the inhibition at 0.1 µM in data set [1] turned out to be 95%.

For `CC1=C(c2ccc(C(=O)N3Cc4cccn4Cc4ccccc43)c(Cl)c2)CCCC1O` (stereo not drawn) [Example 14, (10,11-Dihydro-5H-pyrrolo[2,1-c][1,4]benzodiazepin-10-yl)-[2-chloro-4-(3-hydroxy-2-methyl-cyclohex-1-en-1-yl)-phenyl]-methanone], in data set [1], the inhibition at 0.1 µM came out at 10%.

In turn, `O=C(c1ccc(C2=CCCCC2)cc1)N1Cc2cccn2Cc2ccccc21` [Example 15, (10,11-Dihydro-5H-pyrrolo[2,1-c][1,4]benzodiazepin-10-yl)-(4-cyclohex-1-en-1-yl-phenyl)-methanone] had a melting point of 156 °C. Also, the half-inhibitory concentration (IC50) in data set [1] turned out to be 35.3 nM.

Turning to `CC(C)(C)C1CCCC=C1c1ccc(C(=O)N2Cc3cccn3Cc3ccccc32)cc1` (stereo not drawn) [Example 20, (10,11-5H-Dihydro-pyrrolo[2,1-c][1,4]benzodiazepin-10-yl)-[4-(6-tert-butyl-cyclohex-1-en-1-yl)-phenyl]-methanone], the “V1a % inhibition @ 100 nM” value in data set [1] stood at 4%.

`O=C(c1ccc(C2=CCC3CCC2C3)cc1)N1Cc2cccn2Cc2ccccc21` (stereo not drawn) [Example 21]: the “V1a % inhibition @ 100 nM” value in data set [1] was 37%.

For the compound `O=C(c1ccc(C2=CC(O)CCC2)cc1)N1Cc2cccn2Cc2ccccc21` (stereo not drawn) [Example 25, (10,11-Dihydro-5H-pyrrolo[2,1-c][1,4]benzodiazepin-10-yl)-[4-(3-hydroxy-cyclohex-1-en-1-yl)-phenyl]-methanone], the inhibition at 0.1 µM in data set [1] stood at 76%.

With `CC1=C(c2ccc(C(=O)N3Cc4cccn4Cc4ccccc43)cc2)CCCC1O` (stereo not drawn) [Example 27, (10,11-Dihydro-5H-pyrrolo[2,1-c][1,4]benzodiazepin-10-yl)-[4-(3-hydroxy-2-methyl-cyclohex-1-en-1-yl)-phenyl]-methanone], the inhibition at 0.1 µM in data set [1] stood at 89%.

Take `Cc1cc(C(=O)N2Cc3cccn3Cc3ccccc32)ccc1C1=CC(O)CCC1` (stereo not drawn) [Example 40, (10,11-Dihydro-5H-pyrrolo[2,1-c][1,4]benzodiazepin-10-yl)-[4-(3-hydroxy-cyclohex-1-en-1-yl)-3-methyl-phenyl]-methanone]: the inhibition at 0.1 µM in data set [1] came to 91%.

With `CC1=C(c2ccc(C(=O)N3Cc4cccn4Cc4ccccc43)cc2C)CCCC1N` (stereo not drawn) [Example 45, [4-(3-Amino-2-methyl-cyclohex-1-en-1-yl)-3-methyl-phenyl]-(10,11-dihydro-5H-pyrrolo[2,1-c][1,4]benzodiazepin-10-yl)-methanone], the inhibition at 0.1 µM in data set [1] is 50%.
